According to patent US6806267B1, “Apoptosis-inducing compounds” (priority 1998, dated 2004):
Read-outs that look alike come from different tables or passages of the source.

Experiments:
Format in all cases: cell-based, human
[1] = system: normal bone marrow progenitor cells; details: 10 μM, 72 hours; for colonies scored, mean of 10 normal bone marrow samples: colonies scored after 14 days
Procedure: Bone Marrow samples from donor patients were suspended in RPMI and heparin. Approximately 5 mls of Lympoprep was poured into a sterilin and the bone marrow sample was gently layered on top. The sample was centrifuged at 1800 g for 25 min, brake at 2. Following centrifugation, the buffy coat layer which contained the mononucleur fraction was gently removed using a sterile pasteur pipette and was transferred to a fresh tube. Approximately 10 mls of RPMI was added and the sample was centrifuged at 1800 g for 10 minutes, brake at 9. The supernatant was removed and the wash repeated. The pellet was resuspended in approximately 2 mls of RPMI. 20 μl was removed from the sample, mixed with 380 μl of ethidium bromide/acridine orange mix.(each at 100 μg/ml in PBS, 1:1 v/v). Ethidium bromide and acridine orange are fluorescent dyes which bind DNA. Acridine orange intercalates into DNA giving it a green appearance. Ethidium bromide is taken up by non-viable cells only. This dye also intercalates into the DNA, making it appear orange. The cells were counted under a fluorescent microscope and the volume of cells was adjusted to obtain 4×10^6 cells per ml. Cells were divided into 2 flasks and treated with 0.5% (v/v) ethanol or 10 μM PBOX-6. 100 μl was taken from each flask and added to 1.9 mls of culture media (0.58 ml methylcellulose, 0.55 ml FCS, 0.18 ml BSA, 0.21 ml RPMI, 5 U/ml of granulocytoe monocyte-colony stimulating factor (GM-CSF) and 20 U/ml of erythropoietin (EPO). Tubes were mixed by vortexing and allowed to stand for 1 min before adding 0.5 ml into each of three wells of a 4 well dish. 0.5 ml of sterile water was added to the fourth well. Plates were incubated at 37° C. for 14 days. After 14 days, colonies were scored. A colony is scored as a cluster containing >40 cells, which originates form one stem cell. […]

[2] = system: MCF-7 cells; experiment: Apoptosis in MCF-7 cells
Procedure: MCF-7 cells were maintained in minimum essential medium supplemented with non-essential amino acids (1% v/v), glutamine (1 mM), FCS (10%) and sub-cultured by the protocol described for Hela cells.
In all experiments performed, cells were seeded at a density of 3×10^5 cells/ml into 24-well plates (1 ml well) and immediately treated with the indicated compound. All drugs were diluted from freshly prepared ethanol stock solutions. The final concentration of ethanol in the wells was always 1% (vol/vol); a concentration which by itself had no effect on the cells tested. Following exposure to the appropriate drug, the cells (100 μL) were cytospun onto glass slides pre-coated with poly-L-lysine using a Cytospin 3™ cytocentrifuige (Shandon). They were then stained using the Rapi-Diff kit (eosinm ethylene blue) under the conditions described by the manufacturer. The percent apoptosis and necrosis was determined by counting approximately 300 cells under a light microscope with the aid of a graticule inserted into the eyepiece. At least 3 fields of view per slide, with an average of approximately 100 cells per field, were counted.

[3] = system: Cytochrome C; experiment: Cytochrome C Western blot, CML cell cytosol; details: K562, KYO.1, Lama 84; 16 hour treatment
Procedure: Cells (15×10^6) were harvested by centrifugation at 1800 g for 10 min at 4° C. After being washed once with ice-cold phosphate-buffered saline, the cell pellet was suspended in 100 μl of ice-cold buffer A (20 mM Hepes, pH 7.5, 10 mM KCl, 1.5 mM MgCl2, 1 mM sodium EDTA, 1 mM sodium EGTA, 1 mM dithiotreitol and 0.1 mM phenylmethylsulfonyl fluoride) supplemented with protease inhibitors (5 μg/ml pepstatin A, 10 μg/ml leupeptin and 2 μg/ml of aprotinin). The cells were left to sit on ice for 15 min and then centrifuged at 20,000 g for 20 min. The resulting supernatant was stored at −70° C. until measurement of cytochrome C. Protein determination was measured by using the Bradford assay. Equal amounts of protein were resolved by SDS-polyacrylamide gel electrophoresis in 15% gels and transferred onto nitro-cellulose. Membranes were blocked with phosphate-buffered saline/5% (w/v) dry milk and probed with anti-cytochrome C antibody. Blots were washed, incubated with goat anti-mouse IgG peroxidase conjugate and developed by ECL according to the manufacturer's recommendations.

[4] = system: JNK1 and JNK2; experiment: Western blot of JNK activation in HL-60 cells
[5] = system: p38; experiment: Western blot of p38 activation in K562 cells; details: K562, 5 min up to 8 hours
[6] = system: Jurkat cells; details: 0.5 μM 1 hour, then etoposide 2.5 μM 1 hour
Procedure: (§1) This assay was set up as described by Kohn et al., 1976 with the following modifications.
(§2) Cells were seeded at 0.4×10^6 cells/ml and were in the logarithmic phase of growth. […] Cells harvested for the experiments were at a density of 2×10^6 cells/ml.
(§3) Cells (1×10^6) were labelled with [^3H] thymidine (sp. act. 2 Ci/mmol) (0.2 μCi/ml) and 1 μM unlabelled thymidine, and incubated for 20 hr. Cells were harvested by centrifugation at 500×g for 5 mins following by two washes in PBS and the pellet was resuspended in 3 ml of PBS. Cells were aliquoted into 1 ml amounts in a 24 well plate and allowed to recover for 1 hr at 37° C. before treating with indicated compounds. Following treatment, cells were washed once in PBS and resuspended in 250 μl of PBS. An aliquot of cells (200 μl) was loaded directly onto a 25 mm diameter glass fiber filter, pore size of 0.2 μM. The cells were lysed on the filter by the addition of 5 ml lysis buffer (2% (w/v) SDS, 10 mM disodium EDTA (pH 10) supplemented with 0.5 mg/ml proteinase K. The lysis buffer was allowed to flow slowly through the filter without suction. Filters were washed using 3 ml wash solution (0.02M Na3EDTA pH 10) allowing it to flow without suction. Filters were eluted in the dark with an alkaline solution (0.04M EDTA plus tetrapropylammonium hydroxide (10% in H2O ) added in the amount required to give pH 12.1). The elution apparatus consisted of a filter funnel with output tubing passing through a peristaltic pump to a collector. Elution took place overnight at a flow rate of 0.05 ml/min. Following elution, filters were treated with 0.4 ml HCl (1N) for 1 hr at 70° C. followed by 2.5 ml NaOH (0.4N) for 30 min at room temp. Scintillation fluid (10 ml) was added and radioactivity remaining on the filters was determined by scintillation counting.

[7] = system: K562 cells; details: 3 hours
Procedure: as §1, §2, §3

[8] = system: CML cell lines K562, KYO.1 and Lama 84; experiment: Agarose gel electrophoresis of DNA ladders, CML cells; details: all three CML cell lines

SMILES: CN(C)C(=O)OC1=C(c2cccc3ccccc23)Oc2ccccc2-n2cccc21 [PBOX-6, 7-((Dimethylcarbamoyl)oxy)-6-(1-naphthyl)pyrrolo[2,1-d][1,5]benzoxazepine]
- effect on normal bone marrow progenitor cells [1]: no significant effect
- colonies scored, mean of 10 normal bone marrow samples [1]: 17
- colonies scored, mean of 10 normal bone marrow samples ([1]; listed as PBOX 6): 16.9
- concentration at which morphological features of apoptosis were first observed [2]: 5 μM
- cytochrome C levels in the cytosol [3]: unchanged
- activation of JNK [4]: transient activation of 2 JNK isoforms
- time of peak JNK activation [4]: 1 h
- activation of p38 [5]: failed to activate p38
- effect of pretreatment on etoposide induced DNA strand breaks [6]: did not prevent the induction of DNA strand breaks by etoposide
- DNA strand breaks [7]: did not show any significant increase in DNA strand breaks
- internucleosomal DNA fragmentation (DNA ladders) [8]: DNA laddering pattern was visible
